Experimental data from US6566355B1 (Hoffmann-La Roche Inc., priority 1991, dated 2003).
Where a name gives a salt, the structure may show the parent alone. Read-outs that look alike come from different tables or passages of the source.

What was measured:
β-lactamase = target: T1, β-lactamase (Citrobacter freundii, UniProt P05193); assay: biochemical
T1 construct: Various β-lactamases can be isolated from penicillin- or cephalosporin-resistant bacterial strains such as; endogenous in cells; host or cells: Citrobacter freundii 1203 (enzyme purified from the crude cell extract, after ampicillin induction when necessary)
T1 sequence (P05193 21-381): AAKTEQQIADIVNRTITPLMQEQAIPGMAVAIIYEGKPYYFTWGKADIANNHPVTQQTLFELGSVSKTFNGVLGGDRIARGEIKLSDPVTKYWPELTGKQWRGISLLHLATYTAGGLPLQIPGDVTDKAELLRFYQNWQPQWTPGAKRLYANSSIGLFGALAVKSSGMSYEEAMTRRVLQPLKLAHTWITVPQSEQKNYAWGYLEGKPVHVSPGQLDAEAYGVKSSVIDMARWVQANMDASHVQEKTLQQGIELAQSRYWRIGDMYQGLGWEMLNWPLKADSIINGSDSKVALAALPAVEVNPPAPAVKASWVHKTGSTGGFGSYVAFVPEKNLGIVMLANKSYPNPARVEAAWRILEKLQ
Procedure, shortened: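 β-lactamase from C. freundii 1203 crude extract (French press, 20 mM Tris-HCl pH 7.0) assayed with 0.1 mM nitrocefin in 50 mM phosphate pH 7.0 at 37° C, enzyme set to ΔA/min about 0.1, read at 482 nm. IC50 is inhibitor concentration giving 50% inhibition of nitrocefin cleavage, determined graphically.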

Citrobacter freundii = assay: MIC in vitro of a 1:4 combination of ceftriaxone with a compound of formula I (test D); type: cell-based; settings: 1:4 combination of ceftriaxone with the compound
Experimental: D. Determination of the β-lactamase-inhibiting activity by combination of a compound of general formula I with ceftriaxone
The minimum inhibitory concentration in vitro (MIC in μg/ml) of a 1:4 combination of ceftriaxone with a compound of formula I against Citrobacter freundii is measured and compiled in Table 2 hereinafter.

[1] = IC 50 nM, isolated β-lactamase of Citrobacter freundii, substrate nitrocefin 0.1 mM, 15 minutes pre-incubation with inhibitor, 37° C., pH 7.0
[2] = isolated β-lactamase of Citrobacter freundii, substrate nitrocefin 0.1 mM, 15 minutes pre-incubation with inhibitor, 37° C., pH 7.0, read-out: IC 50 nM

| Compound | IC50 (β-lactamase; [1]) [nM] | MIC (Citrobacter freundii) [µg/mL] | IC50 (β-lactamase) [nM] | IC50 (β-lactamase; [2]) [nM] |
| --- | --- | --- | --- | --- |
| COc1ccc(NC(=O)N2CC[C@@H]3[C@H]2C(=O)N3S(=O)(=O)[O-])cc1.[Na+] [17(l), (1S,5R)-2-(4-Methoxyphenylcarbamoyl)-7-oxo-2,6-diazabicyclo[3.2.0]heptane-6-sulphonic acid sodium salt] | 437 | 4 |  |  |
| O=C(NCC1CCCCC1)N1CC[C@@H]2[C@H]1C(=O)N2S(=O)(=O)[O-].[Na+] [17(m), (1S,5R)-2-Cyclohexylmethylcarbamoyl-7-oxo-2,6-diazabicyclo[3.2.0]heptane-6-sulphonic acid sodium salt] | 359 | 16 |  |  |
| O=C(OCc1cccs1)N1CC[C@@H]2[C@H]1C(=O)N2S(=O)(=O)[O-].[Na+] [17(n), (1S,5R)-7-Oxo-2-(thien-2-yl-methoxycarbonyl)-2,6-diazabicyclo[3.2.0]heptane-6-sulphonic acid sodium salt] | 272 | 16 |  |  |
| O=C1SCC[C@H]1NC(=O)N1CC[C@@H]2[C@H]1C(=O)N2S(=O)(=O)O [17(u), (1S,5R)-7-Oxo-2-(R)-(2-oxo-3-tetrahydrothienyl-carbamoyl)-2,6-diazabicyclo[3.2.0]heptane-6-sulphonic acid sodium salt] |  | 2 | 62 |  |
| Cn1nnnc1CNC(=O)N1CC[C@@H]2[C@H]1C(=O)N2S(=O)(=O)[O-].[Na+] [17(z), (1S,5R) -2-[1-Methyl-1H-tetrazol-5-ylmethylcarbamoyl]-7-oxo-2,6-diazabicyclo[3.2.0]heptane-6-sulfonic acid sodium salt] | 98 | 1 |  |  |
| Cc1cc(=O)oc2cc(OCC(=O)N3CC[C@@H]4[C@H]3C(=O)N4S(=O)(=O)[O-])ccc12.[Na+] [23(a), (1S,5R)-2-(4-Methyl-2-oxo-2H-benzopyran-7-yloxyacetyl)-7-oxo-2,6-diazabicyclo[3.2.0]heptane-6-sulfonic acid sodium salt] | 97 | 16 |  |  |
| Cn1cnnc1SCC(=O)N1CC[C@@H]2[C@H]1C(=O)N2S(=O)(=O)[O-].[Na+] [23(b), (1S,5R)-2-(4-Methyl-4H-1,2,4-triazol-3-ylsulfanylacetyl)-7-oxo-2,6-diazabicyclo[3.2.0]heptane-6-sulfonic acid sodium salt] | 50 | 0.5 |  |  |
| Cn1cccc1/C=C/C(=O)N1CC[C@@H]2[C@H]1C(=O)N2S(=O)(=O)[O-].[Na+] [23(c), (1S,5R)-2-[(E)-3-(1-Methyl-pyrrol-2-yl)acryloyl]-7-oxo-2,6-diazabicyclo[3.2.0]heptane-6-sulfonic acid sodium salt] | 420 | 8 |  |  |
| Cn1ccnc1SCC(=O)N1CC[C@@H]2[C@H]1C(=O)N2S(=O)(=O)[O-].[Na+] [23(d), (1S,5R)-2-(1-Methyl-imidazol-2-ylsulfanylacetyl)-7-oxo-2,6-diazabicyclo[3.2.0]heptane-6-sulfonic acid sodium salt] | 283 | 1 |  |  |
| O=C(/C=C/c1cc[nH]n1)N1CC[C@@H]2[C@H]1C(=O)N2S(=O)(=O)[O-].[Na+] [23(e), (1S,5R)-7-Oxo-2-[(E)-3-pyrazol-3-yl-acryloyl]-2,6-diazabicyclo[3.2.0]heptane-6-sulfonic acid sodium salt] | 138 | 1 |  |  |
| O=C(CNc1cc[nH]c(=O)n1)N1CC[C@@H]2[C@H]1C(=O)N2S(=O)(=O)O [23(f), (1S,5R)-7-Oxo-(2-oxo-1,2-dihydro-pyrimidin-4-ylaminoacctyl)-2,6-diazabicyclo[3.2.0]heptane-6-sulfonic acid sodium salt] |  | 0.5 | 30 |  |
| Nc1nc(SCC(=O)N2CC[C@@H]3[C@H]2C(=O)N3S(=O)(=O)[O-])n(C(=O)OCc2ccccc2)n1.[Na+] [23(g), (1S,5R)-2-(5-Amino-2-benzyloxycarbonyl-2H-1,2,4-triazol-3-ylsulfanyl-acetyl)-7-oxo-2,6-diazabicyclo[3.2.0]heptane-6-sulfonic acid sodium salt] | 280 | 2 |  |  |
| CC(C)=C[C@@H]1[C@@H](C(=O)N2CC[C@@H]3[C@H]2C(=O)N3S(=O)(=O)[O-])C1(C)C.[Na+] [23(h), (1S,5R)-2-[(1R,3R)-2,2-Dimethyl-3-(2-methyl-propenyl)-cyclopropylcarbonyl]7-oxo-2,6-diazabicyclo[3.2.0]heptane-6-sulfonic acid sodium salt] | 920 | 16 |  |  |
| O=C(Nc1nnc(SCC(=O)N2CC[C@@H]3[C@H]2C(=O)N3S(=O)(=O)[O-])s1)OCc1ccccc1.[Na+] [23(i), (1S,5R)-2-(5-Benzyloxycarbonylamino-1,3,4-thiadiazol-2-ylsulfanyl-acetyl)-7-oxo-2,6-diazabicyclo[3.2.0]heptane-6-sulfonic acid sodium salt] | 70 | 1 |  |  |
| O=C(C=Cc1cncn1S(=O)(=O)[O-])N1CC[C@@H]2[C@H]1C(=O)N2S(=O)(=O)[O-].[Na+].[Na+] [23(l), (1S,5R)-7-Oxo-2-[3-(1-sulfo-imidazol-5-yl)acryloyl]-2,6-diazabicyclo[3.2.0]heptane-6-sulfonic acid sodium salt] | 5 | 2 |  |  |
| O=C(OCc1ccccc1)N1CC[C@@H]2[C@H]1C(=O)N2S(=O)(=O)O [Example 1(a), Benzyl (1S,5)-7-oxo-6-sulpho-2,6-diazabicyclo[3.2.0]heptane 2-carboxylate sodium salt] |  | 8 | 100 |  |
| O=C(Nc1ccccc1)N1CC[C@@H]2[C@H]1C(=O)N2S(=O)(=O)[O-].[Na+] [Example 2, (1S,5R)-7-Oxo-2-(phenylcarbamoyl)-2,6-diazabicyclo[3.2.0]heptane-6-sulphonic acid sodium salt] | 220 | 2 |  |  |
| O=C(NCc1ccccc1)N1CC[C@@H]2[C@H]1C(=O)N2S(=O)(=O)O [Example 3, (1S,5R)-2-(Benzylcarbamoyl)-7-oxo-2,6-diazabicyclo[3.2.0]heptane-6-sulphonic acid sodium salt] | 330 | 2 |  |  |
| O=C(/C=C/c1ccco1)N1CC[C@@H]2[C@H]1C(=O)N2S(=O)(=O)O [Example 5(a), (1S,5R)-2-[(E)-3-(2-Furyl)acryloyl-7-oxo-2,6-diazabicyclo[3.20]heptane-6-sulphonic acid sodium salt] |  | 4 | 85 |  |
| N[C@@H](Cc1ccc(O)cc1)C(=O)N1CC[C@@H]2[C@H]1C(=O)N2S(=O)(=O)O [Example 6(b), (1S,5R)-7-Oxo-2-L-tyrosyl-2,6-diazabicyclo[3.2.0]heptane-6-sulphonic acid] |  | 4 | 310 |  |
| COC1=C(C(=O)O)N2C(=O)C3C2C(C1)CN3C(=O)OC(C)(C)C [Example 7, (1aS,3aR,6bR)-1,1a,3a,6b-Tetrahydro-5-methoxy-1-oxo-2,6a-diazacyclobuta[cd]indene-2,6(3H,4H)-dicarboxylic acid 2-t-butyl monoester] |  | 4 |  | 505 |
| CC(=O)Oc1ccc(/C=C/C(=O)N2CC[C@@H]3[C@H]2C(=O)N3S(=O)(=O)[O-])cc1OC(C)=O.[Na+] [Example 13, 4-[(E)-2-[[(1S,5R)-7-Oxo-6-sulpho-2,6-diazabicyclo[3.2.0]heptan-2-yl]carbonyl]vinyl]-o-phenylene diacetate sodium salt] | 63 | 4 |  |  |
| O=C(NCc1ccco1)N1CC[C@@H]2[C@H]1C(=O)N2S(=O)(=O)O [Example 17(a), (1S,5R)-2-(2-Furan-2-yl-methylcarbamoyl)-7-oxo-2,6-diazabicyclo[3.2.0]heptane-6-sulphonic acid sodium salt] |  | 2 | 156 |  |
| O=C(CCC(=O)N1CC[C@@H]2[C@H]1C(=O)N2S(=O)(=O)O)NOCc1ccco1 [Example 19, sodium salt] | 430 | 2 |  |  |
| O=C(CS(=O)(=O)c1ccc(O)c(O)c1)N1CC[C@@H]2[C@H]1C(=O)N2S(=O)(=O)O [Example 20, (1S,5R)-2-[[(3,4-Dihydroxyphenyl)sulphonyl]acetyl]-7-oxo-2,6-diazabicyclo[3.2.0]heptane-6-sulphonic acid sodium salt] | 165 | 4 |  |  |
| N[C@@H](C(=O)N1CC[C@@H]2[C@H]1C(=O)N2S(=O)(=O)O)c1ccc(O)c(O)c1.[Na] [Example 21, (1S,5R)-2-[(R,S)-Amino-(3,4-dihydroxyphenyl)acetyl]-7-oxo-2,6-diazabicyclo[3.2.0]heptane-6-sulphonic acid sodium salt] |  | 4 |  | 695 |
| (1S,5R)-2-[(2-Amino-4-thiazolyl)acetyl]-7-oxo-2,6-diazabicyclo[3.2.0]heptane-6-sulphonic acid triethylamine salt [6(o)] |  | 2 |  | 350 |
| Mixture of (1S,5R)-2-(5-Amino-1H-tetrazol-1-ylacetyl) and (1S,5R)-2-(5-Amino-2H-tetrazol-2-ylacetyl)-7-oxo-2,6-diazabicyclo[3.2.0]heptane-6-sulfonic acid sodium salt (1:2) [23(k)] |  | 2 |  | 273 |
| Mixture of (1S,5R)-2-[(E)-3-(1-Methyl-3- and -4- or -3- and -5- or -4- and -5-sulfo-pyrrol-2-yl)acryloyl]-7-oxo-2,6-diazabicyclo[3.2.0]heptane-6-sulfonic acid sodium salt (1:2) [23(j)] |  | 1 |  | 38 |
